The values that follow come from patent US4935424A, “4 or 5-(substituted piperazinylalkyl)-2-aminothiazoles as antipsychotic agents” (priority 1988, dated 1990).

The structures appear in SMILES notation. Like-named read-outs stand apart in the source and are kept apart here.

Experiment [1] deals with T1, haloperidol binding (Bos taurus, UniProt P20288).
T1 construct: from tissue
Description: Inhibition of haloperidol binding in a receptor binding assay. The note with it: for inhibition at 10 µM: at 10,000 nM. The procedure:
(§1) Thus, the compounds of Formula I were tested for their ability to inhibit locomotor activity in mice according to the assay described in Pharmacol. Biochem. Behav. 1978 (8) 97; for their ability to inhibit haloperidol binding in a receptor binding assay described in Mol. Pharmacol. 1976 (12), 800; for their ability to inhibit brain dopamine synthesis in rats according to the protocol described in Naumyn-Schmiedeberg's Arch. Pharmacol., 1976 (296) 5; and for their ability to inhibit dopamine neuron firing in rats according to the protocol described in Nature New Biology, 1973 (245) 123.

For experiment [2], the system named is locomotor activity in mice. The experiment in a line: Inhibition of locomotor activity in mice. The format is in vivo. The note with it: Mus musculus, IP. The procedure:
as §1

Experiment [3] has as its system brain dopamine synthesis. Description: Inhibition of brain dopamine synthesis in rats. The format is in vivo. Conditions: Rattus norvegicus, IP. As to the method: as §1
The subject of experiment [4] is dopamine neuron firing. The experiment in a line: Inhibition of dopamine neuron firing in rats. The note with it: IP. It is filed as in vivo. As to the method:
as §1

Where [5] appears, read: read-out: Inhibition of Haloperidol Binding (IC50 nM).

T1 sequence (P20288 whole entry): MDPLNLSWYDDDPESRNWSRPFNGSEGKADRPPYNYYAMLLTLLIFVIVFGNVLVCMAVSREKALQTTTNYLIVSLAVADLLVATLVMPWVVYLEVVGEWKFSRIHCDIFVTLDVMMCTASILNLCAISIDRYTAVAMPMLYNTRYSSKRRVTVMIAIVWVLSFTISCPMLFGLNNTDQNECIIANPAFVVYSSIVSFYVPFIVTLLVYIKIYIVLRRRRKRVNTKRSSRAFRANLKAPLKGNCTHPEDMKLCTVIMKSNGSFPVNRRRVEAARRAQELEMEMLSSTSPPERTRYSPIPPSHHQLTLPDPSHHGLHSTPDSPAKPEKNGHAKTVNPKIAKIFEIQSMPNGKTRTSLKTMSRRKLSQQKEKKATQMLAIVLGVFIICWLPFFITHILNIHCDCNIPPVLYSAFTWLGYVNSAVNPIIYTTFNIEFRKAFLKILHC

For `Cc1nc(N)sc1CCCN1CCN(c2ncccn2)CC1` [Example 1, 4-Methyl-5-[3-[4-(2-pyrimidinyl)-1-piperazinyl]-propyl]-2-thiazolamine], in experiment [1] (setting [5]), the half-inhibitory concentration (IC50) came out at 370 nM. This compound also yielded an ED50 in experiment [2] of 6.3 mg/kg. In experiment [3], this compound showed an inhibition in vivo at 1 mg/kg of 82%. The “Inhibition of Dopamine Neuron Firing in Rats” value (“Inhibition … in Rats” for short) in experiment [4] (2.5 mg/kg) was 90%.

On to `Nc1nc(CCCCN2CCN(c3ncccn3)CC2)cs1` [Example 1a, 4-[4-[4-(2-Pyrimidinyl)-1-piperazinyl]butyl]-2-thiazolamine], for which, in experiment [1] (setting [5]), the IC50 was 1060 nM. This compound also yielded an ED50 in experiment [2] of more than 30 mg/kg.

`Cc1nc(N)sc1CCN1CCN(c2ccccc2)CC1` [Example 1b, 4-Methyl-5-[2-(4-phenyl-1-piperazinyl)ethyl]-2-thiazolamine] yielded an inhibition at 10 µM in experiment [1] of 100%. This compound also returned an ED50 in experiment [2] of 1.5 mg/kg. For the same compound, in experiment [4] (10 mg/kg), the “Inhibition … in Rats” value came to 80%.

In experiment [1], `Nc1nc(CCCN2CCN(c3ccccc3)CC2)cs1` [Example 1c, 4-[3-(4-Phenyl-1-piperazinyl)propyl]-2-thiazolamine] gave an inhibition at 10 µM of 40%. The ED50 in experiment [2] stood at 2.4 mg/kg.

As for `Cc1nc(N)sc1CCN1CC=C(c2ccccc2)CC1` [Example 1d, 5-[2-(3,6-dihydro-4-phenyl-1(2H)-pyridinyl)ethyl]-4-methyl-2-thiazolamine], the IC50 in experiment [1] (setting [5]) is 400 nM. Besides, the ED50 in experiment [2] worked out at 0.88 mg/kg. This compound also yielded an inhibition in vivo at 10 mg/kg in experiment [3] of 84%. Further, the “Inhibition … in Rats” value in experiment [4] (2.5 mg/kg) was found to be 70%.

Take `Cl.Cl.Nc1nc(CCCN2CC=C(c3ccccc3)CC2)cs1` [Example 1e, 4-[3-(3,6-Dihydro-4-phenyl-1(2H)-pyridinyl)propyl]-2-thiazolamine, dihydrochloride]: the IC50 in experiment [1] turned out to be 346 nM. It took a dose of 1.7 mg/kg to reach the 50% effect level in experiment [2] (ED50). For the same compound, the inhibition in vivo at 10 mg/kg in experiment [3] turned out to be 44%. In addition, the “Inhibition … in Rats” value in experiment [4] (2.5 mg/kg) is recorded as 78%.

Consider `Cc1nc(N)sc1CCN1CCN(c2ncccn2)CC1` [Example 1f, 4-Methyl-5-[2-[4-(2-pyrimidinyl)-1-piperazinyl]ethyl]-2-thiazolamine], for which, in experiment [1] (setting [5]), the IC50 came out at 118 nM. Also, the 50% effect level in experiment [2] (ED50) was put at a dose of 1.4 mg/kg.

Turning to `Nc1nc(CCCN2CCN(c3ncccn3)CC2)cs1` [Example 1g, 4-[3-[4-(2-Pyrimidinyl)-1-piperazinyl]-propyl]-2-thiazolamine], the half-maximal inhibitory concentration (IC50) in experiment [1] (setting [5]) is 1600 nM. Moreover, the ED50 in experiment [2] was more than 30 mg/kg.

Consider `Cc1nc(N)sc1CCN1CCN(c2ccccn2)CC1` [Example 1h, 4-Methyl-5-[2-[4-(2-pyridinyl)-1-piperazinyl]ethyl]-2-thiazolamine], for which the IC50 in experiment [1] (setting [5]) came to 75 nM. The compound further returned an ED50 in experiment [2] of 1.4 mg/kg. In experiment [3], this compound had an inhibition in vivo at 1 mg/kg of 87%. Also, the “Inhibition … in Rats” value in experiment [4] (2.5 mg/kg) stood at 100%.

The compound `Nc1nc(CCCN2CCN(c3ccccn3)CC2)cs1` [Example 1i, 4-[3-[4-(2-Pyridinyl)-1-piperazinyl]-propyl]-2-thiazolamine] registered an inhibition at 10 µM in experiment [1] of 100%. Moreover, the ED50 in experiment [2] was determined as 7.6 mg/kg. The compound also came in with an inhibition in vivo at 10 mg/kg in experiment [3] of 43%.

In the case of `Cc1nc(N)sc1CCCN1CCN(c2ccccn2)CC1` [Example 1j, 4-Methyl-5-[3-[4-(2-pyridinyl)-1-piperazinyl]propyl]-2-thiazolamine], the half-inhibitory concentration (IC50) in experiment [1] (setting [5]) is 249 nM. For the same compound, in experiment [2], the 50% effect level (ED50) was put at a dose of 4.6 mg/kg. Testing at 10 mg/kg in experiment [3] gave an inhibition in vivo of 100%. In experiment [4] (2.5 mg/kg), the “Inhibition … in Rats” value was found to be 98%.

`Nc1nc(CCCCN2CCN(c3ccccn3)CC2)cs1` [Example 1k, 4-[4-[4-(2-Pyridinyl)-1-piperazinyl]-butyl]-2-thiazolamine]: in experiment [1] (setting [5]), the IC50 stood at 488 nM. Further, in experiment [2], the ED50 came out at 5.5 mg/kg. The compound also gave an inhibition in vivo at 10 mg/kg in experiment [3] of 63%.

Turning to `Nc1ncc(CCN2CCN(c3ccccn3)CC2)s1` [Example 2, 5-[2-[4-(2-pyridinyl)-1-piperazinyl]ethyl]-2-thiazolamine], the ED50 in experiment [2] turned out to be 5.9 mg/kg. At 10 mg/kg the inhibition in vivo in experiment [3] was 92%.

For the compound `Nc1ncc(CCN2CCN(c3ccccc3)CC2)s1` [Example 2a, 5-[2-(4-Phenyl-1-piperazinyl)ethyl]-2-thiazolamine], in experiment [2], the ED50 worked out at 2.6 mg/kg.

`Nc1ncc(CCN2CC=C(c3ccccc3)CC2)s1` [Example 2b, 5-[2-(3,6-Dihydro-4-phenyl-1(2H)-pyridinyl)ethyl]-2-thiazolamine]: the ED50 in experiment [2] came to 0.47 mg/kg. The compound also yielded an inhibition in vivo at 10 mg/kg in experiment [3] of 25%.

The term IC50 denotes the concentration at which inhibition is half-maximal. Broadly, the ED50 is the dose that gives a 50% effect, or the effect in half of the subjects. The inhibition in vivo is the change of the read-out against control, counted positive when it falls. Usually inhibition stands for the percentage by which the read-out fell short of the control. A high value points to a response far below the control.
